Legend:
[1] = molecular target: T1, Phosphatidylinositol 4,5-bisphosphate 3-kinase catalytic subunit alpha isoform (Homo sapiens, UniProt P42336); test: Inhibition of PI3Kalpha by fluorescene polarization assay
[2] = molecular target: T2, Serine/threonine-protein kinase mTOR (Homo sapiens, UniProt P42345); test: Inhibition of mTOR
[3] = molecular target: T1, Phosphatidylinositol 4,5-bisphosphate 3-kinase catalytic subunit alpha isoform; test: Inhibition of PI3Kalpha-phosphorylation at S473 residue in human BT20 cells; format: cell-based, BT-20
[4] = molecular target: T2, Serine/threonine-protein kinase mTOR; test: Inhibition of mTOR at 1 uM

T1 sequence (P42336 whole entry, canonical isoform): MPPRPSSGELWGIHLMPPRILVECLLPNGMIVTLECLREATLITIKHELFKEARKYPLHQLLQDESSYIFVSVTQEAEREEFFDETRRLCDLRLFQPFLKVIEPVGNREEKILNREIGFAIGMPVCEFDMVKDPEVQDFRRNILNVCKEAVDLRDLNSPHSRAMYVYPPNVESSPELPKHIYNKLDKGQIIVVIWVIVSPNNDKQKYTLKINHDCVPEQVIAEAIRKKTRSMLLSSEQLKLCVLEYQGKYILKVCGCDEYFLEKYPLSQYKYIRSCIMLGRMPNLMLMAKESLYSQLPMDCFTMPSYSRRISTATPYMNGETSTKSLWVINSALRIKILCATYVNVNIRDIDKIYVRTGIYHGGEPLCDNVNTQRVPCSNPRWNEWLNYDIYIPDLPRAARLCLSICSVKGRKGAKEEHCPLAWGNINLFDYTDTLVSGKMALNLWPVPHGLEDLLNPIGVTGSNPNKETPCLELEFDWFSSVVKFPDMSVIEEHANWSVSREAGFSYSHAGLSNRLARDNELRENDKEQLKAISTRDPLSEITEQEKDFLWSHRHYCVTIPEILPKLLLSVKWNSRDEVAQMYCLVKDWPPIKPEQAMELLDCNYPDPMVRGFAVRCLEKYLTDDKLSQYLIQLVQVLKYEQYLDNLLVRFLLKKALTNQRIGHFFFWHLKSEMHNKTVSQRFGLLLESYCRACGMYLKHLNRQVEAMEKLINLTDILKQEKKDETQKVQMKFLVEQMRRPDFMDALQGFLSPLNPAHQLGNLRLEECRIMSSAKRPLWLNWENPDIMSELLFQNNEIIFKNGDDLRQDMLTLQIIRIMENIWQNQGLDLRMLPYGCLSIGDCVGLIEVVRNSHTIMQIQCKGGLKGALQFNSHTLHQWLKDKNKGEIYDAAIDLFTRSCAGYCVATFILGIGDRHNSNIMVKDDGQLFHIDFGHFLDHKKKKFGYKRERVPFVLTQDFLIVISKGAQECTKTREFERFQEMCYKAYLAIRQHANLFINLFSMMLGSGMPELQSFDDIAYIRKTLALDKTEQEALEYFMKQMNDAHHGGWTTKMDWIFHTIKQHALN

| SMILES | Ki [1] | Ki [2] | IC50 [3] | inhibition [4] |
| --- | --- | --- | --- | --- |
| Cc1nc(N)c2ccc(C)c(C(=O)Nc3ccn[nH]3)c2n1 | 4550 nM | 984 nM | – | – |
| Cc1cc(C(=O)Nc2ccc(N(C)C)nc2)c2nc(C)nc(N)c2c1 | 12 nM | 162 nM | – | – |
| Cc1nc(N)c2ccc(C)c(C(=O)Nc3ccc(N(C)C)nc3)c2n1 | > 100 nM | – | – | – |
| Cc1nc(N)c2cc(CN3CCOCC3)cc(C(=O)Nc3ccn[nH]3)c2n1 | 15 nM | 13 nM | – | – |
| Cc1nc(N)c2cccc(C(=O)Nc3ccc(N(C)C)nc3)c2n1 | 54 nM | 1000 nM | – | 57% |
| Cc1nc(N)c2ccc(C)c(C(=O)Nc3cnc4[nH]ccc4c3)c2n1 | 631 nM | 216 nM | – | – |
| Cc1nc(N)c2cc(CN(C)C)cc(C(=O)Nc3ccn[nH]3)c2n1 | 188 nM | 1330 nM | – | – |
| Cc1nc(N)c2ccc(C)c(C(=O)Nc3cn[nH]c3)c2n1 | > 100 nM | – | – | – |
| COc1ccc(NC(=O)c2c(C)ccc3c(N)nc(C)nc23)cn1 | > 100 nM | 1000 nM | – | 15% |
| Cc1ccc(NC(=O)c2c(C)ccc3c(N)nc(C)nc23)cn1 | 4550 nM | 3250 nM | – | – |

These reach a lower Ki [1]. Values come first.

| Ki [1] | Ki [2] | IC50 [3] | inhibition [4] | SMILES |
| --- | --- | --- | --- | --- |
| 7 nM | 3 nM | 35 nM | – | Cc1cc(C(=O)Nc2ccn[nH]2)c2nc(C)nc(N)c2c1 |
| 6 nM | 21 nM | – | – | Cc1nc(N)c2cccc(C(=O)Nc3cn[nH]c3)c2n1 |
| 5 nM | 84 nM | 24 nM | – | Cc1cc(C(=O)Nc2cn[nH]c2)c2nc(C)nc(N)c2c1 |
| 1 nM | 5 nM | – | – | Cc1nc(N)c2cccc(C(=O)Nc3cnc4[nH]ccc4c3)c2n1 |
| 0.5 nM | 265 nM | – | – | COc1ccc(NC(=O)c2cc(C)cc3c(N)nc(C)nc23)cn1 |
| 0.5 nM | 66 nM | 88 nM | – | Cc1cc(C(=O)Nc2ccc(C)nc2)c2nc(C)nc(N)c2c1 |
| 0.5 nM | 31 nM | 112 nM | – | Cc1ccc(NC(=O)c2cccc3c(N)nc(C)nc23)cn1 |
| 0.3 nM | 17 nM | 43 nM | – | Cc1cc(C(=O)Nc2cnc3[nH]ccc3c2)c2nc(C)nc(N)c2c1 |

— ChEMBL document CHEMBL1667847, “Quinazolines with intra-molecular hydrogen bonding scaffold (iMHBS) as PI3K/mTOR dual inhibitors” (Bioorg Med Chem Lett, 2011)
